Results from patent publication US4996237A, “Combretastatin A-4” (Arizona Board of Regents, priority 1988, dated 1991).
“Also recorded” adds a separate entry of the source.

Legend:
[1] = test system: tubulin; conditions: previously isolated from Combretum caffrum; cited from earlier work
[2] = test system: HCT-15 human colon cancer cell line; test: growth inhibition of human colon cancer cell line HCT-15; assay type: cell-based; conditions: read-out: ED50, HCT-15
[3] = antimitotic activity; conditions: among the Combretum caffrum constituents
[4] = test system: VoLo human colon cancer cell line; test: growth inhibition of human colon cancer cell line VoLo; assay type: cell-based; conditions: read-out: ED50, VoLo
[5] = test system: DLD-1 human colon cancer cell line; test: growth inhibition of human colon cancer cell line DLD-1; assay type: cell-based; conditions: read-out: ED50, DLD-1
[6] = test system: tubulin; test: inhibition of microtubule assembly / tubulin polymerization; assay type: biochemical
[7] = test system: tubulin; test: inhibition of colchicine binding to tubulin; conditions: competes with combretastatin A-1
[8] = test system: L1210 lymphocytic leukemia cell line; test: growth inhibition of murine L1210 lymphocytic leukemia cell line; assay type: cell-based
[9] = test system: P388 lymphocytic leukemia cell line; test: growth inhibition of murine P388 lymphocytic leukemia cell line (PS system); assay type: cell-based

Compound: COc1ccc(/C=C\c2cc(OC)c(OC)c(OC)c2)c(O)c1O [combretastatin A-1]
- inhibition of microtubule assembly (in words), earlier isolated substances [1]: potent inhibitors of microtubule assembly

Compound: COc1ccc(/C=C\c2cc(OC)c(OC)c(OC)c2)cc1O [Combretastatin A-4]
- antimitotic activity (in words) [3]: strongest antimitotic agent
- activity against L1210 cell line (in words) [8]: significantly active
- IC50 ([8]; Mus musculus, L1210, read-out: ED50, growth of L1210 cell line): < 0.003 µg/mL
- activity against P388 cell line (in words) [9]: significantly active
- IC50 ([9]; Mus musculus, P388, read-out: ED50, growth of P388 cell line): < 0.003 µg/mL

Compound: COc1ccc(/C=C\c2cc(OC)c3c(c2)OCO3)cc1O [combretastatin A-2]
- inhibition of microtubule assembly (in words), earlier isolated substances [1]: potent inhibitors of microtubule assembly

Compound: COc1ccc(/C=C/c2cc(OC)c(OC)c(OC)c2)cc1O [trans-isomer]
- activity against L1210 cell line (in words) [8]: significantly active
- activity against P388 cell line (in words) [9]: significantly active
